The text below walks through data of US8372612B2, “Production of four carbon alcohols using improved strain” (Butamax(TM) Advanced Biofuels LLC, priority 2007, dated 2013).

Test [1] deals with DPD1850 (spoT), DPD1848 (spoT), DPD1865 (rpoZ) and the EC100 control. Conditions: 0.5% (w/v) 1-butanol; LB, 37° C.; FIG. 2.
Method: After a further 2 hr incubation at 37° C. with shaking, 200 μl samples were transferred to a microtiter plate and optical density at A600 recorded. The microtiter plate was moved to a platform shaker that was located within a plastic box that is in a 37° C. incubator.
The test system of test [2] is rpoZ insertion line (JW3624) and wild type BW25113. The following applies: 0.4% 1-butanol; FIG. 5.
From the text: The growth points of triplicate cultures were averaged and plotted in FIG. 5 as absorbance at OD600.
Another test deals with E. coli strain EC100. The following applies: LB agar, closed chamber, 37° C., 1 day.
The subject of test [3] is mutant spoT DPD1848 line as compared to wild type EC100. In kind it is cell-based, E. coli. The following applies: for % improved spoT growth over wt: approximately 18 hours, spoT mutant percent growth minus wild type percent growth. The procedure: Kinetic growth studies were performed for the DPD1848 and the control (EC100) using the Bioscreen C Automated Microbial Growth Curve Analyis System (Oy Growth Curves Ab Ltd., Helsinki, Finland), which is an automated 96 well plate system, that monitors growth of many cultures simultaneously, each in a volume of 150 μl. Overnight triplicate cultures of each strain were grown and diluted (1:10) into either LB or LB freshly supplemented with 0.2%, 0.3%. 0.4% or 0.6% 1-butanol (w/v). The growth of each culture was followed for approximately 18 hours. The triplicates were averaged and plotted in FIG. 3 as the final 18 hour time point, normalized to EC100, and given as the percent growth inhibition relative to the no butanol control for each strain.
An additional kinetic growth study was performed as described above. The data is shown in FIG. 4 plotted as OD600 over time for the DPD1848 spoT mutant (A), and wild type (B, EC100).
A Bioscreen experiment, as described in Example 3, was used to compare growth of the mutant spoT DPD1848 line as compared to wild type EC100 in the following chemicals:
The growth of each culture was followed for approximately 18 hours. Triplicate samples were averaged, and expressed as the percent growth relative to the no chemical control for each strain. The data given in Table 8 is represented as percent growth improvement of the spoT mutant relative to wild type, which is the spoT mutant percent growth minus the wild type percent growth for each challenge.

Test [4] relates to rpoZ::kan line JW3624 and wild type control BW25113. The following applies: 0.4 and 0.6% 1-butanol; FIG. 8. The method, then: Cultures were grown in LB medium containing 0%, 0.4% or 0.6% 1-butanol in shake flasks. The experiments were performed by inoculating 100 ml of medium in a 250 ml plastic flask with 2 ml of an overnight culture grown from a single colony grown at 37° C. and incubating with shaking for approximately two doubling times (1 hour), to an OD600 between 0.2 and 0.3. Each culture was split into five 25 ml cultures in plastic screw top 125 ml flasks and the cultures were maintained at 37° C. in a shaking water bath at 200 rpm. The OD600 was monitored at 0, 30, 90, 120 190, and 260 minutes.
In the cultures above, a final time point was taken at 18 hr and used to calculate growth yield as a function of 1-butanol challenge. For each line grown in 0, 0.4% or 0.6% 1-butanol, the final 18 hour time point was divided by the no 1-butanol 18 hr time point.

Test [5] has as its system relA::kan line (strain JW2755) and the parent BW25113. It is filed as cell-based, E. coli K12. The method, then: A strain of E. coli K12 having a kanamycin marker insertion in the relA coding region (relA::kan) is available in the Keio knockout collection that is described in Example 4. Overnight cultures of the relA::kan line (strain JW2755) and the parent BW25113 were inoculated with fresh colonies and grown in LB at 37° C. with shaking. The next day the cultures were diluted 1:100 into 100 ml of fresh LB in a 1 liter flask and grown for approximately 2 hours. The culture was split into 20 ml aliquots in 125 ml plastic screw top flasks. One culture remained unaltered serving as the no add control, and various concentrations of either 2-butanol or isobutanol were added to the remaining flasks. Absorbance (OD600) was monitored over time. Using a 3 hr time point for growth in isobutanol and a 2.5 hr time point for growth in 2-butanol, fractional growth yields were determined and percent improvement was calculated by subtracting […] and multiplying by 100.

Test [6] has as its system L. plantarum spoT mutant MS0280. In words: Growth rate in Lacto Synthetic Medium with isobutanol, spoT mutant MS0280. Conditions: for Growth rate: MS0280, 30° C., LSM. In kind it is cell-based, Lactobacillus plantarum. The method, then:
(§1) Strains MS0280 and MS0281, and Lactobacillus plantarum PN0512 (ATCC #PTA-7727), were tested for tolerance to isobutanol. The strains were streaked on semi-synthetic medium plates, pH 6 (medium composition: 10 mM ammonium sulfate, 5 mM potassium phosphate buffer, pH 6.0, 50 mM MES, pH 6.0, 2 mM MgCl2, 0.7 mM CaCl2, 50 μM MnCl2, 1 μM FeCl3, 1 μM ZnCl2, 1.72 μM CuCl2, 2.53 μM CoCl2, 2.42 μM Na2MoO4, 2 μM thiamine hydrochloride, 10 mM glucose, 0.01% casamino acids, 0.2% yeast extract and 1.5% agar), from frozen stock cultures. The plates that the two mutants (MS0280 and MS0281) were streaked onto also included chloramphenicol at 10 μg/ml. The plates were incubated overnight at 30° C. under anaerobic conditions. The next day, overnight cultures were started by inoculating Lacto Synthetic Medium (LSM; medium composition: 10 mM ammonium sulfate, 5 mM potassium phosphate buffer, pH 6.0, 50 mM MES, pH 6.0, 2 mM MgCl2, 0.7 mM CaCl2, 50 μM MnCl2, 1 μM FeCl3, 1 μM ZnCl2, 1.72 μM CuCl2, 2.53 μM CoCl2, 2.42 μM Na2MoO4, 2 μM thiamine hydrochloride, 10 mM glucose, 0.01% casamino acids and 0.2% yeast extract) with a diluted (1:6) culture with an initial OD600 of 0.02. These overnight cultures were allowed to incubate at 30° C. in a gently shaking water bath. The next morning, the overnight cultures were diluted to have an initial OD600 of 0.1, in a volume of 220 ml of LSM. These starter cultures were allowed to incubate at 30° C. in a gently shaking water bath for 1.25 hours, to ensure the cultures were not in a lag phase. At this time, 20 ml aliquots were dispensed to duplicate flasks containing different volumes of isobutanol, to give final concentrations of 0, 0.5, 1, 1.5 and 2%. The growth of each flask was followed by taking OD600 readings every hour. The natural log of the OD600 values were plotted on a linear scale vs time.

Test [7] concerns Lactobacillus plantarum PN0512. In words: Growth rate in Lacto Synthetic Medium with isobutanol, parental control. It is filed as cell-based. The following applies: for Growth rate: PN0512, 30° C., LSM. The method, then: as §1
The subject of test [8] is L. plantarum spoT mutant MS0281. Nature of the test: Growth rate in Lacto Synthetic Medium with isobutanol, spoT mutant MS0281. In kind it is cell-based, Lactobacillus plantarum. Conditions: for Growth rate: MS0281, 30° C., LSM. The method, then: as §1

SMILES strings stand for the structures. Where two headings read alike, the source gives them in different places.

Method for E. coli strain EC100: LB agar media supplemented with butanol was prepared fresh one day before innoculating at an appropriate volume and cooled for 2 hours in a 50° C. water bath. LB agar plates supplemented with butanol were prepared by dispensing 67 mls of melted agar, using a peristaltic pump and sterile Nalgene tubing, into sterile Omni trays with lids (Nunc mfg no. 242811). […] The plates were allowed to cool and set for approximately an hour before they were stored overnight in closed anaerobic chambers at room temperature in the chemical/biological hood. The next morning, the chambers harboring the plates were opened and allowed to air dry for approximately 1 hour before using.
Plates were incubated in a closed chamber at 37° C. for 1 day. The number of colonies arising and their sizes were scored. […] Butanol concentrations of 0.4% and 0.6% were chosen to screen for tolerance.

For the molecule `CCCCO` [1-butanol], the “Growth of spoT and rpoZ lines relative to EC100 (difference between 4 and 2 hr time points)” value in test [1] is on record as “improved growth”. In addition, the “Butanol tolerant phenotype of rpoZ insertion line (OD600 growth)” value in [2] is given as “butanol tolerant phenotype was seen”. Besides, the “Concentration at which only pinpoint colonies were seen” value in the test with E. coli strain EC100 came out at 0.6%. Also, the “Concentration from which colonies were progressively smaller” value with E. coli strain EC100 is recorded as no less than 0.2%. Besides, the “Concentrations at which no colony formation was observed after overnight incubation” value in the test with E. coli strain EC100 is on record as ≥ 0.7 % (w/v). Moreover, the “Tolerance of spoT mutant versus wild type strain in terms of growth rate” value in test [3] (all concentrations of 1-butanol tested (0.2%, 0.3%, 0.4%, 0.6% w/v), FIG. 4) is listed as “more tolerant”. In addition, the “% improved spoT growth over wt” value in [3] (chemical at 0.2% (w/v)) is recorded as 11.4%; in test [3] (chemical at 0.3% (w/v)), 13.8%; in test [3] (chemical at 0.4% (w/v)), “about 16.5%”; in [3] (chemical at 0.4% (w/v), listed as 1-BuOH), 16.5%; in [3] (chemical at 0.6% (w/v)), 9.7%. Also, the “Growth yield of rpoZ mutant versus wild type (18 hr time point divided by no 1-butanol 18 hr time point)” value in test [4] is “higher growth yields than wild type”.

For `CCC(C)O` (stereo not drawn) [2-butanol], the “% improved spoT growth over wt” value in test [3] (chemical at 0.80% (w/v)) was “about 7%”; in test [3] (chemical at 0.80% (w/v), listed as 2-BuOH), 7.2%; in test [3] (chemical at 1.20% (w/v)), 0%; in test [3] (chemical at 1.40% (w/v)), 0%; in [3] (chemical at 1.60% (w/v)), 0%. Further, the “Percent improvement of fractional growth yield of relA mutant relative to the parent” value in [5] (0.6% 2-butanol, 2.5 hr time point, FIG. 10B) is listed as “small improvement”; in [5] (0.8% 2-butanol, 2.5 hr time point, FIG. 10B), “small improvement”.

As to `CCC(C)=O` [2-butanone], the “% improved spoT growth over wt” value in test [3] (chemical at 3% (w/v)) is “about 3%”.

For `CCC(C)=O` [MEK, methyl ethyl ketone], the “% improved spoT growth over wt” value in test [3] (chemical at 2.50% (w/v)) is 0%; in test [3] (chemical at 3% (w/v)), 3.1%; in [3] (chemical at 3.50% (w/v)), 4.3%; in test [3] (chemical at 4% (w/v)) it was 33.5%.

Turning to `CC(C)CO` [isobutanol], the Growth rate in test [6] (isobutanol concentration 0.5%) was 0.464 μ/hour; in test [6] (isobutanol concentration 1%), 0.426 μ/hour; in test [6] (isobutanol concentration 1.5%) it was 0.382 μ/hour; in [6] (isobutanol concentration 2%) it was 0.359 μ/hour; in [7] (isobutanol concentration 0.5%) it was 0.424 μ/hour; in [7] (isobutanol concentration 1%), 0.385 μ/hour. Also, the Growth rate is given as 0.364 μ/hour in test [7] (isobutanol concentration 1.5%); 0.349 μ/hour in test [7] (isobutanol concentration 2%); 0.467 μ/hour in [8] (isobutanol concentration 0.5%); 0.426 μ/hour in test [8] (isobutanol concentration 1%); 0.397 μ/hour in test [8] (isobutanol concentration 1.5%); 0.359 μ/hour in test [8] (isobutanol concentration 2%). The Growth rate inhibition in test [6] (the mutants (MS0280), 0.5% isobutanol, growth rates in presence and absence of isobutanol compared) amounted to 5%; in test [7] (the parent (PN0512), 0.5% isobutanol, growth rates in presence and absence of isobutanol compared), 9%; in [8] (the mutants (MS0281), 0.5% isobutanol, growth rates in presence and absence of isobutanol compared), 5%. In addition, the “% improved spoT growth over wt” value is given as “about 13.5%” in test [3] (chemical at 0.80% (w/v)); 13.5% in test [3] (chemical at 0.80% (w/v), listed as IsoBuOH); 12.1% in test [3] (chemical at 1.20% (w/v)); 11.4% in [3] (chemical at 1.40% (w/v)); 10.7% in [3] (chemical at 1.60% (w/v)). Also, the “Percent improvement of fractional growth yield of relA mutant relative to the parent” value in test [5] (0.8% isobutanol, 3 hr time point, FIG. 10A) was “small improvement”.
